Results published in ChEMBL document CHEMBL5331129, “Discovery of NAFLD-Improving Agents by Promoting the Degradation of Keap1” (J Med Chem, 2023).
Active and inactive are the calls of the source. The rule behind the calls is not given here.

How the values were obtained:
[1] = target: T1, Protein cereblon/Kelch-like ECH-associated protein 1 (Mus musculus) (UniProt Q9Z2X8+Q8C7D2); assay: PROTAC activity at CRBN/Keap1 in mouse AML12 cells assessed as degradation of Keap1 protein at 0.5 to 2 uM incubated for 6 to 48 hrs by Western blotting analysis; type: cell-based; conditions: dose 0.5-2 µM, time 6-48 hrs, TDE = time-dependent effect
T1 sequence (Q8C7D2 whole entry, looked up): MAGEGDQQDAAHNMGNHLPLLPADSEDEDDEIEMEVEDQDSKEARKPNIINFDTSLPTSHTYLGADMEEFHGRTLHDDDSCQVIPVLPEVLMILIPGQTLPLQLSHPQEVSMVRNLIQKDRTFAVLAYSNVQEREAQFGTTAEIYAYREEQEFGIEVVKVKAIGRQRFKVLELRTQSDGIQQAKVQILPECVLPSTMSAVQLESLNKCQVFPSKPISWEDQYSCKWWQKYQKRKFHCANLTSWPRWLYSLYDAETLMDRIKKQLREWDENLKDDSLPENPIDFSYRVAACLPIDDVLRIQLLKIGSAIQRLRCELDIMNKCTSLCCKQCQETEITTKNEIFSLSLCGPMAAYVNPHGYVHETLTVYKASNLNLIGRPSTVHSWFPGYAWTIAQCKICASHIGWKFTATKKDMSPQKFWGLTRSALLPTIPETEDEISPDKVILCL
T1 sequence (Q9Z2X8 whole entry, looked up): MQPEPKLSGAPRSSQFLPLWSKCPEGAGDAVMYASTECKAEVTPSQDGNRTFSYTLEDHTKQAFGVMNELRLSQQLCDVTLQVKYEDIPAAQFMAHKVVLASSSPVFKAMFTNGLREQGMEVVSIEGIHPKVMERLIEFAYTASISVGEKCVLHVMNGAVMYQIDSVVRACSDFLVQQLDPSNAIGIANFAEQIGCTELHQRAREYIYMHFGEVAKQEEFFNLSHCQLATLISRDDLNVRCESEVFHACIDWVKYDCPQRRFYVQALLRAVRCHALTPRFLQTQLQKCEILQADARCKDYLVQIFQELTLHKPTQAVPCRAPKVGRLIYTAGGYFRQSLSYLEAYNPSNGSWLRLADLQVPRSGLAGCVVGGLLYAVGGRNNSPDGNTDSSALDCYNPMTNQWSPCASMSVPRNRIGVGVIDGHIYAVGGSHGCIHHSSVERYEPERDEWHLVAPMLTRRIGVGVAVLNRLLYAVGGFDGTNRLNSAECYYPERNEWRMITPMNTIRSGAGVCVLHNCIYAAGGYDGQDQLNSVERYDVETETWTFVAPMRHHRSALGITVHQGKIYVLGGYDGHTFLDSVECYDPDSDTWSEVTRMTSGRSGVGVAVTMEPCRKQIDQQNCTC

[2] = target: T1, Protein cereblon/Kelch-like ECH-associated protein 1 (Mus musculus); assay: PROTAC activity at CRBN/Keap1 in mouse AML12 cells assessed as degradation of Keap1 protein at 0.5 to 2 uM incubated for 24 hrs by Western blotting analysis; type: cell-based; conditions: dose 0.5-2 µM
[3] = target: T1, Protein cereblon/Kelch-like ECH-associated protein 1 (Mus musculus); assay: PROTAC activity at CRBN/Keap1 in mouse AML12 cells assessed as degradation of Keap1 protein at 1 uM incubated for 24 hrs by Western blotting analysis; type: cell-based
[4] = target: T1, Protein cereblon/Kelch-like ECH-associated protein 1 (Mus musculus); assay: PROTAC activity at CRBN/Keap1 in mouse AML12 cells assessed as degradation of Keap1 protein level at 1 uM preincubated with MLN-4924 followed by compound addition and incubated for 24 hrs by Western blotting analysis; type: cell-based
[5] = target: T1, Protein cereblon/Kelch-like ECH-associated protein 1 (Mus musculus); assay: PROTAC activity at CRBN/Keap1 in mouse AML12 cells assessed as degradation of Keap1 protein level at 1 uM preincubated with CDDO followed by compound addition and incubated for 24 hrs by Western blotting analysis; type: cell-based
AML12 [6] = assay: Cytotoxicity against mouse AML12 cells at 0.5 uM incubated for 24 hrs by MTT assay; type: toxicity, cell-based; conditions: aml12, 24 h
AML12 [7] = assay: Antioxidant activity against free fatty acid induced oxidative stress in mouse AML12 cells assessed as upregulation of Nrf2 protein expression level at 0.125 to 0.5 uM incubated for 24 hrs by immunoblot analysis; type: functional, cell-based; conditions: dose 0.125-0.5 µM
AML12 [8] = assay: Antioxidant activity against free fatty acid induced oxidative stress in mouse AML12 cells assessed as upregulation of HO-1 protein expression level at 0.125 to 0.5 uM incubated for 24 hrs by immunoblot analysis; type: functional, cell-based; conditions: dose 0.125-0.5 µM
AML12 [9] = assay: Antioxidant activity against free fatty acid induced oxidative stress in mouse AML12 cells assessed as upregulation of NQO1 protein expression level at 0.125 to 0.5 uM incubated for 24 hrs by immunoblot analysis; type: functional, cell-based; conditions: dose 0.125-0.5 µM
AML12 [10] = assay: Antioxidant activity against free fatty acid induced oxidative stress in mouse AML12 cells assessed as increase in GSH level at 0.125 to 0.5 uM; type: functional, cell-based; conditions: dose 0.125-0.5 µM
AML12 [11] = assay: Antioxidant activity against free fatty acid induced oxidative stress in mouse AML12 cells assessed as increase in SOD level at 0.125 to 0.5 uM; type: functional, cell-based; conditions: dose 0.125-0.5 µM
Mus musculus [12] = assay: Antioxidant activity against MCD diet-induced oxidative stress in C57Bl/6 mouse model of NAFLD assessed as downregulation of liver Keap1 protein expression level at 0.5 to 2 mg/kg,ip administrated for 4 weeks by immunofluorescence staining analysis; type: functional, organism-based; conditions: dose 0.5-2 mg/kg
Mus musculus [13] = assay: Antioxidant activity against MCD diet-induced oxidative stress in C57Bl/6 mouse model of NAFLD assessed as upregulation of liver Nrf2 protein expression level at 0.5 to 2 mg/kg,ip administrated for 4 weeks by immunofluorescence staining analysis; type: functional, organism-based; conditions: dose 0.5-2 mg/kg
Mus musculus [14] = assay: Antioxidant activity against MCD diet-induced oxidative stress in C57Bl/6 mouse model of NAFLD assessed as increase in SOD level in liver at 0.5 to 2 mg/kg,ip administrated for 4 weeks; type: functional, organism-based; conditions: dose 0.5-2 mg/kg
Mus musculus [15] = assay: Antioxidant activity against MCD diet-induced oxidative stress in C57Bl/6 mouse model of NAFLD assessed as increase in GSH level in liver at 0.5 to 2 mg/kg,ip administrated for 4 weeks; type: functional, organism-based; conditions: dose 0.5-2 mg/kg
Mus musculus [16] = assay: Antioxidant activity against MCD diet-induced oxidative stress in C57Bl/6 mouse model of NAFLD assessed as decrease in liver ROS level at 0.5 to 2 mg/kg,ip administrated for 4 weeks by immunostaining analysis; type: functional, organism-based; conditions: dose 0.5-2 mg/kg
AML12 [17] = assay: Antioxidant activity against free fatty acid induced oxidative stress in mouse AML12 cells assessed as reduction in triglyceride level at 0.5 uM incubated for 24 hrs; type: functional, cell-based
[18] = Toxicity in MCD diet-induced oxidative stress in C57Bl/6 mouse model of NAFLD assessed as body weight loss at 2 mg/kg,ip administrated for 4 weeks […]; type: organism-based; conditions: in vivo, 672 h
[19] = Toxicity in MCD diet-induced oxidative stress in C57Bl/6 mouse model of NAFLD assessed as decrease in ratio of liver weight to body weight at ip administrated for 4 weeks […]; type: organism-based; conditions: in vivo, 672 h
Mus musculus [20] = assay: Antioxidant activity against MCD diet-induced oxidative stress in C57Bl/6 mouse model of NAFLD assessed as reduction of serum ALT level at 0.5 to 2 mg/kg,ip administrated for 4 weeks; type: functional, organism-based; conditions: dose 0.5-2 mg/kg
Mus musculus [21] = assay: Antioxidant activity against MCD diet-induced oxidative stress in C57Bl/6 mouse model of NAFLD assessed as reduction of serum AST level at 0.5 to 2 mg/kg,ip administrated for 4 weeks; type: functional, organism-based; conditions: dose 0.5-2 mg/kg
Mus musculus [22] = assay: Antioxidant activity against MCD diet-induced oxidative stress in C57Bl/6 mouse model of NAFLD assessed as reduction of liver macrophage infiltration at 0.5 to 2 mg/kg,ip administrated for 4 weeks by immunostaining assay; type: functional, organism-based; conditions: dose 0.5-2 mg/kg
Mus musculus [23] = assay: Antioxidant activity against MCD diet-induced oxidative stress in C57Bl/6 mouse model of NAFLD assessed as reduction of morphological change in liver at ip administrated for 4 weeks by hematoxylin and eosin staining based assay; type: functional, organism-based
Mus musculus [24] = assay: Antioxidant activity against MCD diet-induced oxidative stress in C57Bl/6 mouse model of NAFLD assessed as reduction of pericellular fibrosis in liver at ip administrated for 4 weeks by Sirius red staining based analysis; type: functional, organism-based
[25] = Cardiotoxicity in zebrafish at 10 uM observed at 72 hrs post fertilization; type: toxicity, Danio rerio
[26] = Acute toxicity in C57BL/6 mouse assessed as histopathological change in heart at 20 mg/kg,ip qd administrated for 3 consecutive days and measured on day 4 by hematoxylin and eosin staining based assay; type: organism-based; conditions: in vivo
[27] = Acute toxicity in C57BL/6 mouse assessed as histopathological change in lung at 20 mg/kg,ip qd administrated for 3 consecutive days and measured on day 4 by hematoxylin and eosin staining based assay; type: organism-based; conditions: in vivo
[28] = Acute toxicity in C57BL/6 mouse assessed as histopathological change in spleen at 20 mg/kg,ip qd administrated for 3 consecutive days and measured on day 4 by hematoxylin and eosin staining based assay; type: organism-based; conditions: in vivo
[29] = Acute toxicity in C57BL/6 mouse assessed as histopathological change in kidney at 20 mg/kg,ip qd administrated for 3 consecutive days and measured on day 4 by hematoxylin and eosin staining based assay; type: organism-based; conditions: in vivo
[30] = Toxicity in C57BL/6 mouse assessed as change in body weight at 2 mg/kg,ip qd administrated for 4 weeks; type: organism-based; conditions: in vivo, 672 h
[31] = Toxicity in C57BL/6 mouse assessed as histopathological change in heart at 2 mg/kg,ip qd administrated for 4 weeks by hematoxylin and eosin staining based assay; type: organism-based; conditions: in vivo, 672 h
[32] = Toxicity in C57BL/6 mouse assessed as histopathological change in liver at 2 mg/kg,ip qd administrated for 4 weeks by hematoxylin and eosin staining based assay; type: organism-based; conditions: in vivo, 672 h

Question: Which results are given for `CC1(C)CC[C@]2(C(=O)NCCCCCNc3cccc4c3C(=O)N(C3CCC(=O)NC3=O)C4=O)CC[C@]3(C)[C@H](C(=O)C=C4C5(C)C=C(C#N)C(=O)C(C)(C)[C@@H]5CC[C@]43C)[C@@H]2C1` (single isomer, unassigned)?
Answer: Activity [1]: Tde; Activity [2]: Active; Activity [3]: Active; Activity [4]: inactive; Activity [5]: inactive; Activity (AML12 [6]): Non-Toxic; Activity (AML12 [7]): Active; Activity (AML12 [8]): Active; Activity (AML12 [9]): Active; Activity (AML12 [10]): Active; Activity (AML12 [11]): Active; Activity (Mus musculus [12]): Dose-Dependent Effect; Activity (Mus musculus [13]): Dose-Dependent Effect; Activity (Mus musculus [14]): Active; Activity (Mus musculus [15]): Active; Activity (Mus musculus [16]): Active; Activity (AML12 [17]): Active; Activity [18]: Non-Toxic; Activity [19]: Non-Toxic; Activity (Mus musculus [20]): Active; Activity (Mus musculus [21]): Active; Activity (Mus musculus [22]): Active; Activity (Mus musculus [23]): Dose-Dependent Effect; Activity (Mus musculus [24]): Dose-Dependent Effect; Activity [25]: Non-Toxic; Activity [26]: Toxic; Activity [27]: Non-Toxic; Activity [28]: Non-Toxic; Activity [29]: Non-Toxic; Activity [30]: Toxic; Activity [31]: Non-Toxic; Activity [32]: Non-Toxic
